From patent publication US20230192650A1, “NOVEL ACID SECRETION INHIBITOR AND USE THEREOF” (Ildong Pharmaceutical Co., Ltd., priority 2020, published 2023)
Read-outs that look alike come from different tables or passages of the source.

Experiments:
human SSTR4 = human SSTR4 (Homo sapiens, UniProt P31391); assay: SSTR4 agonist effect (cell-based cAMP functional assay, HTRF); conditions: CHO cells stably expressing human SSTR4, 37° C. 30 minutes, vs sst-14 10 nM
Method: The agonism effect on SSTR4 was confirmed by cell-based cAMP functional assay. CHO cells in which human SSTR4 was stably expressed were treated with test substances for each concentration and reacted at 37° C. for 30 minutes, and an amount of the produced cAMP was measured by the HTRF detection method. The % response compared to the reference control agonist (sst-14, 10 nM) was calculated, and the EC50 was calculated through the concentration-response curve.

[1] = test system: indomethacin-induced gastric damage; assay: Gastric damage inhibitory efficacy in rat of indomethacin-induced gastric damage; format: in vivo; conditions: SD rats, 10 mg/kg oral 1 hour before indomethacin, 5 hours
Method: The experiment was performed as follows to evaluate the gastric ulcer inhibitory efficacy of the Example compound in rat models of gastric damage induced by indomethacin, a drug in the NSAID classes.
Among fasted male Sprague Dawley rats, the control group was orally administered with 0.5% methylcellulose solution, and the other groups were orally administered with the Example compound at a dose of 10 mg/10 mL/kg suspended in 0.5% methylcellulose solution.
In 1 hour after oral administration of the Example compound, indomethacin was orally administered, and after 5 hours, the test animals were sacrificed and the stomach was enucleated. After washing the enucleated surface of the stomach, the greater curvature of the stomach was incised. The incised stomach was spread out and fixed. Then, the ratio of the gastric damaged area was obtained by the total gastric area and the damaged area on the gastric mucosa surface using ImageJ software (NIH, Bethesda), and the % inhibitory activity of the Example compound was calculated according to the following Equation 3.
% inhibitory activity of Example compound=[(ratio of gastric damaged area in control group−ratio of gastric damaged area in group treated with Example compound)/(ratio of gastric damaged area in control group)]×100 [Equation 3]

[2] = Pharmacokinetic test in beagle dogs; format: in vivo; conditions: blood, beagle dog; for bioavailability: oral 10 mg/kg vs intravenous 5 mg/kg, read-out: F (%) bioavailability; for AUC(0-inf): single oral dose 10 mg/kg
Method: (§1) The Example compound was dissolved in PBS containing 5% DMSO and 20% hydroxypropyl (HP) beta cyclodextrin, and administered intravenously to rats at a dose of 5 mg/kg, and the Example compound was suspended in distilled water containing 0.5% methylcellulose, and orally administered to rats at a dose of 10 mg/kg. The Example compound was dissolved in PBS containing 5% DMSO and 20% hydroxypropyl (HP) beta cyclodextrin, and administered intravenously to beagle dogs at a dose of 5 mg/kg, and the Example compound was suspended in distilled water containing 0.5% methylcellulose, and orally administered to beagle dogs at a dose of 10 mg/kg. Blood samples were collected at scheduled time points after the single intravenous and oral administration of the Example compound to normal rats and beagle dogs. Acetonitrile containing an internal standard material was added to the collected blood sample for protein precipitation. The sample extracted through protein precipitation was centrifuged, and then the supernatant was injected into LC-MS/MS to be subjected to quantitative analysis of the blood concentration of the Example compound. The AUC for each administration route was calculated based on the blood concentration-time profile obtained as a result above, and based on this, the bioavailability (F) upon oral administration was calculated.

[3] = target: T1, proton pump (H+/K+-ATPase) (Sus scrofa, UniProt P19156); assay: Reversibility of proton pump inhibition by jump dilution method; format: biochemical, pig; conditions: 0.2 μM compound
T1 construct: Gastric vesicles isolated from pig stomach were prepared according to the document; from tissue; host or cells: pig stomach (gastric vesicles)
T1 sequence (P19156 2-1034 limits assumed): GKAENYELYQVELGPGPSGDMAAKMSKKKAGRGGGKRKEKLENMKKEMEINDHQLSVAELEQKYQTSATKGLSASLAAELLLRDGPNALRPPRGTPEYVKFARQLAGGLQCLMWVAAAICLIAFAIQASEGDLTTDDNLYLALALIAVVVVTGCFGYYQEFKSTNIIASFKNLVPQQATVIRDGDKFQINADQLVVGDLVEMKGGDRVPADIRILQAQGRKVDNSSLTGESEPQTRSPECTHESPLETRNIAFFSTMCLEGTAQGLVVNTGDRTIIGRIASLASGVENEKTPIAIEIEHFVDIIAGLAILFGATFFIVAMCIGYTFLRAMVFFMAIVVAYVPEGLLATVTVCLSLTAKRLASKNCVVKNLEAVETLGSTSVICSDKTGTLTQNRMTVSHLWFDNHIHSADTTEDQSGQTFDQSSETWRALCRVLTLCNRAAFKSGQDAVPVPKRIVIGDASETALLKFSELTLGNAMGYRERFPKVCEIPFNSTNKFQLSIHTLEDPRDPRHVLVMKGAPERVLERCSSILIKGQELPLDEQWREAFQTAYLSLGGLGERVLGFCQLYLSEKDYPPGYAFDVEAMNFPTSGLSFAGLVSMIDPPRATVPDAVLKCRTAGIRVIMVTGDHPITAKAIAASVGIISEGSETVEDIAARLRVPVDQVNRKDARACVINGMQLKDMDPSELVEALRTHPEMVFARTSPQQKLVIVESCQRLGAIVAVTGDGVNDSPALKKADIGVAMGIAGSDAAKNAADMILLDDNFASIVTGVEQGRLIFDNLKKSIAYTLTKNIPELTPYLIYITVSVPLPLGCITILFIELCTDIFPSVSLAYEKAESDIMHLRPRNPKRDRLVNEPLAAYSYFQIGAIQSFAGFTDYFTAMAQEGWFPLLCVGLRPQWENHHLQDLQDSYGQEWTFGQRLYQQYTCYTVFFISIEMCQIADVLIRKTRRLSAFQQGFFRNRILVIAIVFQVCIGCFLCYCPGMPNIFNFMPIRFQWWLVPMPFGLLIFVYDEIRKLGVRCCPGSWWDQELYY
T1 sequence (P18434 whole entry partner): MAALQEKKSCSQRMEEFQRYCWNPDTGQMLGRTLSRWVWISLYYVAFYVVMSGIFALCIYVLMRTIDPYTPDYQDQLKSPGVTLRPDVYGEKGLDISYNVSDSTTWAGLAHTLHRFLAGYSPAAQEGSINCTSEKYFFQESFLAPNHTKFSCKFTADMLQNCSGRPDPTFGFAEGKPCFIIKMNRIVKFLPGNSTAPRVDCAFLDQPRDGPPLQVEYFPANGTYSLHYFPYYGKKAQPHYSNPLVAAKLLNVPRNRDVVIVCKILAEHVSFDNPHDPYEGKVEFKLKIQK
Method: In addition, in order to confirm the reversibility of the inhibition ability on the proton pump (H^+/K^+-ATPase) of the prepared compound, an experiment was performed by the jump dilution method. 6.25 μg of gastric vesicles isolated from pig stomach and 0.2 μM of each compound were pre-incubated for 120 minutes, and then the enzyme activity before dilution and the enzyme activity after 50-fold dilution were compared for each reaction time, and the reversibility was evaluated. In both Example 1 and Example 3, the inhibition ability of 50% or more was confirmed after 20 minutes of the reaction. On the other hand, when the reaction was performed for 60 minutes after the 50-fold dilution, in both Examples 1 and 3, the enzyme activity was recovered to 90% or more, and reversible results were confirmed.

[4] = target: T1, proton pump (H+/K+-ATPase); assay: Inhibitory activity on proton pump (H+/K+-ATPase), malachite green assay; format: biochemical; conditions: pig gastric vesicles, pH 6.5
Method: (§2) The proton pump (H+/K+-ATPase) inhibitory activity of the prepared compound was measured as follows. Gastric vesicles isolated from pig stomach were prepared according to the document (see Methods Mol Biol. 2016; 1377:19-27). The protein contents of the gastric vesicles were quantified with a Bicinchoninic Acid (BCA) kit (Sigma Aldrich, BCA1). To each well of a 96-well plate, 70 μl of 50 mM Tris-HEPES buffer (pH 6.5) containing 125 ng of vesicles, DMSO or a substance for each concentration (final DMSO concentration of 1%), 5 mM MgCl2, and 10 mM KCl was added and pre-incubated at 37° C. for 30 minutes. Then, 10 μl of 2 mM ATP was added to each well, followed by enzymatic reaction at 37° C. for 40 minutes. The reaction was stopped by adding 20 μl of malachite green reagent (Sigma Aldrich, MAK307) and the resulting mixture was allowed to stand at room temperature for 30 minutes. By measuring the absorbance at 620 nm using a Microplate Reader (Biotek, Synergy H4), an amount of inorganic phosphorus released from ATP degradation was measured and the enzyme activity was measured. The absorbance of the enzyme-reacted sample without adding KCl was measured, and the measurement value was subtracted from all the above measurements. Assuming that the group treated with 1% DMSO (DMSO control group) was 100% H^+/K^+-ATPase enzyme activity, and that the group without KCl (KCl control group) was 0% H^+/K^+-ATPase enzyme activity, % inhibition was calculated as in the following Equation 1:
% inhibition=[1−(ODtreatment group−ODKCl control group)/(ODDMSO control group−ODKCl control group))]*100. [Equation 1]
IC50 was obtained by nonlinear regression analysis of GraphPad Prism7 program using % inhibition values for each concentration, and results thereof are shown in Table 2 below.

[5] = Intragastric distribution test in rats; format: in vivo; conditions: rat, oral 4 mg/kg, 1, 6, 12 and 24 hours
Method: After oral administration of the Example compound in normal rats, the intragastric distribution by time was measured as follows. The prepared compound was dissolved in distilled water containing 0.5% methylcellulose to 0.2 mg/mL, and then orally administered at a dosage of 4 mg/kg. Rats were sacrificed at 1 hour, 6 hours, 12 hours, and 24 hours after administration. Then, blood was exsanguinated through the heart and perfused with physiological saline, the gastric tissue was enucleated, weighed, and stored at −80° C. until the point of analysis. PBS buffer was added so that the ratio of gastric tissue weight to PBS buffer was 1:4, and the compound in gastric tissue was extracted using a homogenizer. The supernatant of the extract was taken and was subjected to protein precipitation using acetonitrile, and then an amount of the Example compound was measured using LC-MS/MS.

[6] = target: T1, proton pump (H+/K+-ATPase); assay: Proton pump (H+/K+-ATPase) inhibitory activity depending on pH; format: biochemical, pig
Method: as §2, with “1: […]” for “1:”
In order to measure the change in proton pump (H+/K+-ATPase) inhibitory activity depending on the pH of the prepared compound, an experiment was performed in the same manner as in Test Example 1 under three conditions of pH 6.5, pH 7.0, and pH 7.5.

[7] = Pharmacokinetic test in rats; format: in vivo; conditions: blood, rat; for bioavailability: oral 10 mg/kg vs intravenous 5 mg/kg, read-out: F (%) bioavailability; for AUC(0-inf): single oral dose 10 mg/kg
Method: as §1

[8] = test system: basal gastric acid secretion; assay: Inhibition of basal gastric acid secretion in pylorus-ligated rat (Shay's rat model); format: in vivo; conditions: SD rats, 10 mg/kg oral 1 h before pylorus ligation, 5 hours after ligation
Method: The inhibitory efficacy of the prepared compound on basal gastric acid secretion was measured by employing the Shay's rat model [Shay H, et al., Gastroenterology, 1945, 5, 43˜61].
Male Sprague Dawley (SD) rats were divided into 8 rats per group, and fasted with only water supply for 24 hours. Then, one hour before pylorus ligation, the control group was orally administered with 0.5% methylcellulose solution, and the other groups were orally administered with the Example compound at a dose of 10 mg/10 mL/kg suspended in 0.5% methylcellulose solution.
After 5 hours of ligation, the rats were sacrificed under Zoletil and Xylazine anesthesia, and the gastric contents were enucleated by incision of the abdominal cavity. The obtained contents were centrifuged at 3,000 rpm for 10 minutes to separate only the supernatant, and gastric juice was collected. 1 mL of the collected gastric juice was taken into a beaker and the pH was measured using an electrode pH meter. To 1 mL of gastric juice, 0.03 mL each of 0.5% dimethylaminoazobenzene alcohol solution and 1% phenolphthalein alcohol solution was added to make red color, and then 0.1N NaOH solution was added, wherein the volume until the rose tint appeared was determined as the total acidity, and the total acid output was obtained by multiplying the acidity of gastric juice by the amount of gastric juice. The % inhibitory activity of the Example compound was calculated according to the following Equation 2, and results thereof are shown in Table 6 below.
% inhibitory activity of Example compound=[(total gastric acid secretion in Control group−total gastric acid secretion in group treated with Example compound)/total gastric acid secretion in Control group]×100 [Equation 2]

[9] = after 20 minutes of the reaction, read-out: inhibition ability
[10] = reaction time 20 min, after 50-fold dilution, read-out: % Inhibition
[11] = reaction time 20 min, before dilution, read-out: % Inhibition
[12] = reaction time 60 min, after 50-fold dilution, read-out: % Inhibition
[13] = reaction time 60 min, before dilution, read-out: % Inhibition
[14] = reaction time 120 min, after 50-fold dilution, read-out: % Inhibition
[15] = reaction time 120 min, before dilution, read-out: % Inhibition

human SSTR4, sequence (P31391 whole entry): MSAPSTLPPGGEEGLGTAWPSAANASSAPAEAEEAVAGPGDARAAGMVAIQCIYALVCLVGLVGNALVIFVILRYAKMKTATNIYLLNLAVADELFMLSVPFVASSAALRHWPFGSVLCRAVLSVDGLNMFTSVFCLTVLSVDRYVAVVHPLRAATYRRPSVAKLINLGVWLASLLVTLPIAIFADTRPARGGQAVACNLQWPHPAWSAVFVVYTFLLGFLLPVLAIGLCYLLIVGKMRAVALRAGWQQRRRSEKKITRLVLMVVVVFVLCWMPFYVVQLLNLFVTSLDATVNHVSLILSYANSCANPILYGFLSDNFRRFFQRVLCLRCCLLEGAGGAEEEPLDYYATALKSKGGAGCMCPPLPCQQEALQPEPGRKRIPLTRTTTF

Compound: CNCc1cn(S(=O)(=O)c2ccc(OC)nc2)c(-c2ccccc2F)c1OC [Example 1, 1-(5-(2-Fluorophenyl)-4-methoxy-1-((6-methoxypyridin-3-yl)sulfonyl)-1H-pyrrol-3-yl)-N-methylmethanamine]
- EC50 (human SSTR4): 780 nM
- Inhibitory Activity (%) on ratio of gastric damaged area [1]: +++ (97% or more: +++)
- bioavailability [2]: 71.7%
- AUC(0-inf) [2]: 10200 ng·h/mL
- inhibition at 0.2 µM [3, 9]: ≥ 50%
- inhibition at 0.2 µM [3, 10]: 20 to 50%
- inhibition at 0.2 µM [3, 11]: ≥ 50%
- inhibition at 0.2 µM [3, 12]: < 20%
- inhibition at 0.2 µM [3, 13]: ≥ 50%
- inhibition at 0.2 µM [3, 14]: < 20%
- inhibition at 0.2 µM [3, 15]: ≥ 50%
- IC50 [4]: ≤ 300 nM
- concentration in the stomach versus in vitro H+/K+ ATPase IC50 [5]: exceeded ICH of the in vitro H^+/K^+ ATPase inhibition assay at all time points
- IC50 ([6]; pH 6.5): ≤ 100 nM
- IC50 ([6]; pH 7.0): ≤ 100 nM
- IC50 ([6]; pH 7.5): 100 to 1000 nM
- bioavailability [7]: 22%
- AUC(0-inf) [7]: 253 ng·h/mL
- Inhibitory Activity (%) on total gastric acid secretion [8]: +++ (90% or more: +++)
- pH of gastric juice [8]: 8.25 ± 0.16

Compound: CNCc1cn(S(=O)(=O)c2ccc(OC)nc2)c(-c2ccc(F)cc2F)c1OC [Example 2, 1-(5-(2,4-Difluorophenyl)-4-methoxy-1-((6-methoxypyridin-3-yl)sulfonyl)-1H-pyrrol-3-yl)-N-methylmethanamine]
- IC50 [4]: ≤ 300 nM
- Inhibitory Activity (%) on total gastric acid secretion [8]: +++ (90% or more: +++)
- pH of gastric juice [8]: 8.04 ± 0.16

Compound: CNCc1cn(S(=O)(=O)c2ccc(C)nc2)c(-c2ccc(F)cc2F)c1OC [Example 3, 1-(5-(2,4-Difluorophenyl)-4-methoxy-1-((6-methylpyridin-3-yl)sulfonyl)-1H-pyrrol-3-yl)-N-methylmethanamine]
- EC50 (human SSTR4): 3900 nM
- Inhibitory Activity (%) on ratio of gastric damaged area [1]: +++ (97% or more: +++)
- bioavailability [2]: 83.8%
- AUC(0-inf) [2]: 14500 ng·h/mL
- inhibition at 0.2 µM [3, 9]: ≥ 50%
- inhibition at 0.2 µM [3, 10]: 20 to 50%
- inhibition at 0.2 µM [3, 11]: ≥ 50%
- inhibition at 0.2 µM [3, 12]: < 20%
- inhibition at 0.2 µM [3, 13]: ≥ 50%
- inhibition at 0.2 µM [3, 14]: < 20%
- inhibition at 0.2 µM [3, 15]: ≥ 50%
- IC50 [4]: ≤ 300 nM
- IC50 ([6]; pH 6.5): ≤ 100 nM
- inhibition ability depending on pH ([6]; pH 6.5, pH 7.0, pH 7.5 compared): higher inhibition ability in a weakly acidic condition compared to a neutral condition
- IC50 ([6]; pH 7.0): 100 to 1000 nM
- IC50 ([6]; pH 7.5): 100 to 1000 nM
- bioavailability [7]: 27.3%
- AUC(0-inf) [7]: 275 ng·h/mL
- Inhibitory Activity (%) on total gastric acid secretion [8]: +++ (90% or more: +++)
- pH of gastric juice [8]: 8.08 ± 0.24

Compound: CNCc1cn(S(=O)(=O)c2ccc(C)nc2)c(-c2ccccc2F)c1OC [Example 4, 1-(5-(2-Fluorophenyl)-4-methoxy-1-((6-methylpyridin-3-yl)sulfonyl)-1H-pyrrol-3-yl)-N-methylmethanamine]
- IC50 [4]: ≤ 300 nM
